{
  "source": "patent US8017828B2",
  "about": "“Utilization of rare sugars in plant or microorganism” (Shikoku Research Institute Incorporated, priority 2004, dated 2011)",
  "format_in_all_cases": "in vivo",
  "key": {"[1]": {"tested_on": "eggplant plant (variety: “Senryo NiGo”)", "assay": "Spraying of sugar solution during eggplant cultivation", "settings": "0.2% (w/v) sprayed weekly", "experimental": "In the process of cultivation of eggplant, an effect of spraying D-psicose was examined.\nAn eggplant plant (variety: “Senryo NiGo”) was used in an experiment. Eggplant seedlings were transplanted for permanent planting to No. 7 unglazed pots filled with “Hana to Yasai no Tsuchi (garden soil for flowers and vegetables)” and a cultivation test was carried out in a vinyl house equipped with a heating device. As a fertilizer, 4 granules of IB compound fertilizer per pot were given around the roots, and irrigation was carried out by automatically feeding 500 ml of water twice a day. During the cultivation, on a weekly basis, water, a 0.2% (w/v) D-glucose solution or a 0.2 (w/v) D-psicose solution was sprayed onto the whole plant. As for the number of eggplant plants, 10 plants were used for each group, and the cultivation was carried out twice, i.e., in summer (from May 14 to Jul. 15, 2004) and in winter (from Nov. 4, 2004 to Feb. 24, 2005). A survey was carried out with regard to the growth conditions during the cultivation and yield of fruits."}, "Vitis vinifera L.": {"tested_on": "Vitis vinifera L.", "experimental": "Matured branches of “V. vinifera L.” grown outdoors were collected on December 25 during the dormant stage and were prepared to have one bud, and then, each cutting base was immersed in a 0.01, 0.1 or 1% aqueous solution of D-psicose for 24 hours. On the following day December 26, the same procedure as in 1 was carried out. In a control plot, distilled water was used, and to the liquid for treatment, Approach BI was not added. The judgment of bud flush was carried out in accordance with the method in 1. The measurement of bud flush was carried out on about a weekly basis.\nIn the survey of the bud flush rate, 9 cuttings were used for each plot and the procedure was repeated twice and an average was obtained."}, "Vitis kiusiana Momiyama": {"tested_on": "Vitis kiusiana Momiyama", "assay": "Bud flush of dormant branch cuttings of wild grape", "experimental": "Matured branches of a Japanese wild grape Vitis kiusiana Momiyama, in which rooting of cuttings is difficult (Mochioka et al., Plant Tissue Culture 13: 139-145, 1996; Journal of ASEV JAPAN 13: 2-8, 2002) and dormancy of buds is deep (Mochioka et al., Journal of Japanese Society for Horticultural Science, 65: 49-54, 1996) were collected in January during the dormant stage, and stored under refrigeration in such a manner that they were not dried. On March 11, they were prepared to have one bud. After each cutting base was immersed in a 3% aqueous solution of D-psicose (supplemented with a spreading agent, Approach BI at 0.2%) for 24 hours, on the following day March 12, it was planted in a Vermiculite bed and placed in a temperature-controlled chamber at 25° C. and 16-hour day length, and the bud flush rate with time was measured. The timing of bud flush was determined to be a time when bud scale leaves fall off and about 50% of the tomentum that protects the bud appears. In a control plot, the cutting base was immersed in distilled water supplemented with 0.2% Approach BI for 24 hours, and then, subjected to the same treatment as described above.\nIn the survey of the bud flush rate, 9 cuttings were used for each plot and the procedure was repeated three times and an average was obtained."}, "[2]": {"tested_on": "tomato plant (variety: “Momotaro”)", "assay": "Spraying of sugar solution during tomato cultivation", "settings": "0.2% (w/v) sprayed weekly", "experimental": "In the process of cultivation of tomato, an effect of spraying D-psicose was examined.\nA tomato plant (variety: “Momotaro”) was used in an experiment. Tomato seedlings were transplanted for permanent planting to No. 7 unglazed pots filled with “Hana to Yasai no Tsuchi (garden soil for flowers and vegetables)” and a cultivation test was carried out in a vinyl house equipped with a heating device. As a fertilizer, 4 granules of IB compound fertilizer per pot were given around the roots, and irrigation was carried out by automatically feeding 500 ml of water twice a day. During the cultivation, on a weekly basis, water, a 0.2% (w/v) D-glucose solution or a 0.2% (w/v) D-psicose solution was sprayed onto the whole plant. As for the number of tomato plants, 10 plants were used for each group, and the cultivation was carried out twice, i.e., in summer (from April 20 to Aug. 9, 2004) and in winter (from Nov. 4, 2004 to Mar. 14, 2005). A survey was carried out with regard to the growth conditions during the cultivation and yield of fruits."}, "[3]": {"tested_on": "tomato (Home Momotaro), sunny lettuce (Red Wave), morning glory (Tairin Zaki Kongo)", "assay": "Seed germination, short-time and continuous treatment (Experiment 2)", "settings": "continuous treatment with 1%", "experimental": "In order to clarify an effect of a short-time treatment, 50 seeds of Salsola komarovii, tomato (Home Momotaro) and sunny lettuce (Red Wave), and 20 seeds of morning glory (Tairin Zaki Kongo) were immersed in any of deionized water, 1% D-psicose, 1% D-allose and 1% L-galactose for 24 hours (25° C., dark), respectively, then, they were lightly washed with deionized water. Then, the seeds were sown in a dish with a diameter of 9 cm having a filter paper placed therein, and germinated under the same condition by poring 5 to 10 ml of deionized water therein. Further, for the comparison, a continuous treatment with 1% D-psicose was carried out in accordance with the same procedure."}, "lipoxygenase gene": {"tested_on": "lipoxygenase gene", "assay": "Northern blotting of lipoxygenase gene expression in sprayed cut leaves of rough lemon", "settings": "0.5 mM sprayed on cut leaves, 2 to 48 hours", "experimental": "Cut leaves of rough lemon were treated by spraying each of 0.5 mM L-psicose, L- & D-tagatose and D-sorbose thereon and were let stand for 2, 4, 6, 12, 24 and 48 hours at 24° C. under the dark condition in a moist chamber. Then, from the treated leaves, total RNA was extracted and the expression of genes of lipoxygenase and chitinase was analyzed by Northern blotting. The assays and analyses were repeated at least 3 times in all the treated plots, and equivalent results were obtained."}, "[4]": {"tested_on": "rice plant (variety: Nihonbare)", "assay": "Growth of rice seedlings in hydroponic culture with D-psicose"}, "[5]": {"settings": "0.5 mM, hydroponic culture for 10 days"}},
  "note": "Where two headings read alike, the source gives them in different places.",
  "data": [
    {"smiles": "O=C(CO)[C@H](O)[C@H](O)[C@H](O)CO", "note": "[D-psicose]", "values": [
      {"measurement": "significant effect of spraying on cultivation", "setting": "[1]; summer", "result": "not observed"},
      {"measurement": "growth (aerial part weight and underground part weight)", "setting": "[1]; winter", "result": "promotion of the growth"},
      {"measurement": "yield of fruits", "setting": "[1]; winter", "result": "increase"},
      {"measurement": "bud flush rate", "setting": "Vitis vinifera L.; 0.01%", "result": "a similar pattern to that of the control plot"},
      {"measurement": "bud flush rate", "setting": "Vitis vinifera L.; 0.1%, throughout the whole period", "result": "the lowest value"},
      {"measurement": "bud flush rate", "setting": "Vitis vinifera L.; 1%, after the mid-February", "result": "the highest value"},
      {"measurement": "bud flush rate compared with control plot", "setting": "Vitis vinifera L.; all plots (0.01, 0.1, 1%), until early February", "result": "lower"},
      {"measurement": "state of green branches of grapes in summer after treatment", "setting": "Vitis vinifera L.; in vivo", "result": "withered and dead"},
      {"measurement": "bud flush rate compared with control plot", "setting": "Vitis kiusiana Momiyama; 3% aqueous solution 24 hours, whole period", "result": "higher"},
      {"measurement": "timing of bud flush", "setting": "Vitis kiusiana Momiyama; cutting base immersed in 3% aqueous solution 24 hours, control mid-April", "result": "from late March"},
      {"measurement": "significant effect of spraying on cultivation", "setting": "[2]; summer", "result": "not observed"},
      {"measurement": "number of fruits", "setting": "[2]; winter", "result": "increase"},
      {"measurement": "yield of fruits", "setting": "[2]; winter", "result": "increase"},
      {"measurement": "germination", "setting": "[3]", "result": "inhibited"},
      {"measurement": "induction of the expression of lipoxygenase gene, persistency", "setting": "lipoxygenase gene", "result": "maintained for the longest time"},
      {"measurement": "Number of roots", "setting": "[4]; 0.5 mM", "result": "no change"},
      {"measurement": "Number of roots", "setting": "[4]; 0.5 mM D-psicose, Day 10 after germination, non-treated 7.00 ± 0.6", "result": "7.00 ± 0.6", "unit": "roots"},
      {"measurement": "Seed root length", "setting": "[4]; 0.5 mM D-psicose, Day 10 after germination, non-treated 7.58 ± 0.23", "result": "5.15 ± 0.26", "unit": "cm"},
      {"measurement": "Plant length", "setting": "[4]; 0.5 mM D-psicose, Day 10 after germination, non-treated 12.08 ± 0.21", "result": "5.29 ± 0.58", "unit": "cm"},
      {"measurement": "root length inhibited by", "setting": "[4]; [5]", "result": 67, "unit": "%"},
      {"measurement": "seedling length inhibited by", "setting": "[4]; [5]", "result": 43, "unit": "%"},
      {"measurement": "Plant length, percentage of the relative value to untreated plot", "setting": "[4]; 7 days (1 week) after transplantation to pot, after 0.5 mM D-psicose", "result": 52.4, "unit": "%"},
      {"measurement": "Plant length", "setting": "[4]; 7 days after transplantation to pot, after 0.5 mM D-psicose treatment, untreated 31.4 ± 0.5", "result": "16.5 ± 2.4", "unit": "cm"},
      {"measurement": "Plant length", "setting": "[4]; 14 days after transplantation to pot, after 0.5 mM D-psicose treatment, untreated 44.7 ± 0.1", "result": "35.3 ± 2.1", "unit": "cm"},
      {"measurement": "inhibition at 100 µM", "setting": "[4]; Oryza sativa, 0.1 mM", "result": 30, "unit": "%"},
      {"measurement": "time to recover to the size equal to that of the untreated plot after transplanting to soil", "setting": "[4]; after 0.5 mM treatment, raised without D-psicose", "result": "about 3 weeks"},
      {"measurement": "growth relative to the untreated plot", "setting": "[4]; until 0.05 mM (0.005 to 0.05 mM)", "result": "> 98", "unit": "%"}
    ]}
  ]
}
